Assay results reported in US20210214421A1 (priority 2018, published 2021).

What was measured:
Assay in all cases: microbe, parasite or virus in culture
Assay type in all cases: cell-based
[1] = system: Staphylococcus pseudintermedius strain GL151A; details: 24 h, read-out: minimal inhibiting concentration (breakthrough point)
[2] = system: Staphylococcus pseudintermedius strain 23929; details: Staphylococcus pseudintermedius, 23929, 24 h, read-out: minimal inhibiting concentration (breakthrough point)
[3] = system: Staphylococcus pseudintermedius strain HH15; details: HH15, 24 h, read-out: minimal inhibiting concentration (breakthrough point)
[4] = system: Staphylococcus pseudintermedius strain 69687; details: Staphylococcus pseudintermedius, 69687, 24 h, read-out: minimal inhibiting concentration (breakthrough point)

Measured: MIC

CCC[C@@H]1C[C@@H](C(=O)N[C@@H]([C@H]2O[C@H](SC)[C@H](O)[C@@H](O)[C@H]2O)[C@H](C)Cl)N(C)C1 [clindamycin]
625 µg/mL: all assays above
